One experiment concerns Hdy-HIF-1α. The experiment in a line: Immunoblot of HIF-1α / hydroxylated HIF-1α levels in HeLa cells. Format: cell-based, Human. The method, then: (§1) Cell culture. Human cell lines HeLa, U2OS and HEK 293, purchased from ATCC, were propagated in DMEM supplemented with 10% fetal bovine serum (FBS), L- glutamine, 100 μg ml^−1 of penicillin/streptomycin at 37 °C and 5% CO2. Cells were maintained for no more than 30 passages. All cell lines were routinely tested for mycoplasma contamination using MycoAlert kit from Lonza. For compound treatment experiments, cells were transferred in six-well plates with either 3 × 10^5 or 5 × 10^5 cells per well in 2 ml of media. At 80% confluence, cells were treated with compounds at the desired concentration, reaching final DMSO concentration of 0.1% v/v. Cells were incubated at 37 °C and 5% CO2 for the desired time before harvesting.
(§2) Immunoblotting. Cells were lysed in lysis buffer (20 mM Tris pH 8, 150 mM NaCl, 1% Triton × 100) and a protease inhibitor cocktail (Roche) per 10 ml buffer. For protein extracts, the dishes were placed on ice. The media was aspirated and the tissue layer washed twice with ice-cold phosphate buffer saline (PBS). Lysis buffer (120 μl) was added and the cells detached from the surface with a cell scraper. After removal of the insoluble fraction by centrifugation, the protein concentration of the supernatant was determined by Pierce™ Coomassie (Bradford) Protein Assay Kit. Protein extracts were fractionated by SDS-PAGE on 4–12% Tris-Acetate NuPage® Novex® (Life Technologies) polyacrylamide gels and transferred to a nitrocellulose membrane using wet transfer. The membrane was then blocked with 5 % w/v Bovine serum albumin (BSA) in Tris-buffered saline (TBS) with 0.1% w/v Tween-20. For detecting proteins the following primary antibodies in the given concentrations were used: anti-β-Actin (Cell Signaling Technology, 4970S, 13E5) 1:2000, anti-VHL (Cell Signaling Technology, #68547) 1:1000, anti-Hif-1α (BD Biosciences, 610959, clone 54) 1:1,000, anti-hydroxy-HIF-1α (Hyp564) (Cell Signaling Techonology; #3434) 1:1,000, anti-PHD2 (Bethyl Laboratories; A300-322A) 1:1,000, anti-PHD3 (Bethyl Laboratories; A300-327A) 1:1000, anti-CRBN (Proteintech; 11435-1-AP) 1:1,000. Following incubation with a horseradish peroxidase-conjugated secondary antibody (Cell Signaling Technology), the signal was developed using enhanced chemiluminescence (ECL) Western Blotting Detection Kit (Amersham) on Amersham Hyperfilm ECL film (Amersham). Band quantification was performed using ImageJ software and reported as relative amount as ratio of the each protein band relative to the lane’s loading control. The values obtained were then normalized to 0.1% DMSO vehicle control. See Supplementary Fig. 12 for full-scanned images of western-blots shown in the main text figures.
Background: Immunoblotting shows a protein as a band on a membrane.

In the next experiment the test system is HIF-1α. The experiment in a line: TMT MS proteomics in HeLa cells, HIF-1α level. Format: cell-based, Human. The settings on record: 150 µM, 10 h. The method, then: MS proteomics. Sample preparation. HeLa cells were seeded at 5 × 10^6 on a 10 cm plate 16 h before treatment. […] Cells were incubated at 37 °C and 5% CO2 for 10 h before harvesting. Cells were placed on ice and medium was removed and cells were washed twice with cold PBS. Cells were lysed in 0.5 ml of 100 mM Tris pH 8.0, 4% (w/v) SDS supplemented with protease inhibitor cocktail (Roche). The lysate was pulse sonicated briefly and then centrifuged at 17,000 × g for 15 min at 4 °C. The supernatant fraction of cell extract was snap-frozen in liquid nitrogen and stored in −80 °C freezer. Further sample processing, digestion, desalting, labeling and fractionation were performed as previously described.
nLC-MS/MS analysis. The TMT 10plex fractions were first analyzed as previously described. Briefly, the TMT 10plex fractions were analyzed sequentially on a Q Exactive HF Hybrid Quadrupole-Orbitrap Mass Spectrometer (Thermo Scientific) coupled to an UltiMate 3000 RSLCnano UHPLC system (Thermo Scientific) and EasySpray column (75 μm × 50 cm, PepMap RSLC C18 column, 2 μm, 100 Å, Thermo Scientific). The MS2 isolation window was set to 0.4 Da and the resolution set at 120,000. MS2 resolution was set at 60,000. […] After the first analysis, the TMT labeled fractions were re-analyzed on the Q-Exactive HF using the same instrument settings and a target list generated from a theoretical trypsin digest of VHL. […]

Experiment [1] deals with T1, pVHL19 (Homo sapiens, UniProt P40337). Set-up: made in house; method as in PMID 25166285. The settings on record: ITC, ref [18]; cited from earlier work. For orientation: Isothermal titration calorimetry measures the heat released or taken up as one component is titrated into another.
Target sequence in this assay (P40337 54-213): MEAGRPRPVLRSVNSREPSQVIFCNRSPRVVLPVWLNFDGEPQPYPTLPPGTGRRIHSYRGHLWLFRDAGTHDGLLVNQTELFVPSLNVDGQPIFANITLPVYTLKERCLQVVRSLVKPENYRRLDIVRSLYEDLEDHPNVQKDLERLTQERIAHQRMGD
Target sequence in this assay (Q15369 17-112 partner limits assumed): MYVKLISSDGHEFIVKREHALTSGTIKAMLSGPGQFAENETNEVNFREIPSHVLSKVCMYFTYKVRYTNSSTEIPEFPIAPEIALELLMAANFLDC
Target sequence in this assay (Q15370 1-104 partner limits assumed): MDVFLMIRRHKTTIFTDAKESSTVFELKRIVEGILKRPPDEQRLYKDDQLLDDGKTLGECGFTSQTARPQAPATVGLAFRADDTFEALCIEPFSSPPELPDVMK
Another experiment concerns the target pVHL30 (Homo sapiens, UniProt P40337). The experiment in a line: Immunoblot of pVHL30 protein level in HeLa cells after compound treatment. The class given is cell-based. Set-up: endogenous in cells; host or cells: HeLa. The settings on record: 10 h, read-out: pVHL30 band quantification normalized to 0.1% DMSO. As to the method:
as §1, §2

Experiment [2] has as its target T1, pVHL19. The experiment in a line: Immunoblot of pVHL19 protein level in HeLa cells after compound treatment. Set-up: endogenous in cells; host or cells: HeLa. Format: cell-based. The settings on record: 10 h, read-out: pVHL19 band quantification normalized to 0.1% DMSO. The method, then:
as §1, §2
Target sequence in this assay (P40337 54-213): as the sequence (P40337 54-213) above
Target sequence in this assay (Q15369 whole entry partner): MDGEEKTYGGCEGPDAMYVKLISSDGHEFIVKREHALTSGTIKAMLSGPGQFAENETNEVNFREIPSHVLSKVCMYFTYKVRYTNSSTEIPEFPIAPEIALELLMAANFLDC
Target sequence in this assay (Q15370 whole entry partner): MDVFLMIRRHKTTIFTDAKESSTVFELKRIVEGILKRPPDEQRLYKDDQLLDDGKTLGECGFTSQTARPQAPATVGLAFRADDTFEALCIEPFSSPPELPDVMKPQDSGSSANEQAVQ

pVHL30, sequence (P40337 whole entry): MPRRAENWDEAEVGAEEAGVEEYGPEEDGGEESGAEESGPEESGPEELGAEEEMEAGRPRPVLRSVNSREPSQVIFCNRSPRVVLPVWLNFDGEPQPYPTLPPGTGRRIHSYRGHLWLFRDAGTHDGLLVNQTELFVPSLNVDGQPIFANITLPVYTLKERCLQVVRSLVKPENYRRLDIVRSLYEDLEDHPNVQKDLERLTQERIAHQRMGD

With `CC(=O)N[C@H](C(=O)N1C[C@H](O)C[C@H]1C(=O)NCc1ccc(-c2scnc2C)cc1)C(C)(C)C` [VH032, reference compound], the “effect on HIF-1α at 1 µM” value with Hdy-HIF-1α (HeLa, 1 µM) is “completely ineffective”. The “concentration at which active in cells” value with Hdy-HIF-1α (inhibitory concentration of the ligand alone in cells) is ~ 100 µM. Also, the “protein levels of HIF-1α” value in the experiment on HIF-1α was “increased”. Besides, on pVHL19 [1], the ΔG entry is given as “–9.17 ± 0.02 kcal mol^−1”, the ΔH entry is on record as “–5.53 ± 0.01 kcal mol^−1” and the “−TΔS” value was “–3.65 ± 0.02 kcal mol^−1”. Moreover, the remaining pVHL30 protein level at 150 µM at pVHL30 was determined as 127%. Besides, the remaining activity at 150 µM on pVHL19 [2] came out at 113%.

These data come from publication PMC5635026, “Homo-PROTACs: bivalent small-molecule dimerizers of the VHL E3 ubiquitin ligase to induce self-degradation” (Nature Communications, 2017).
